How the values were obtained:
Test in all cases: Equilibrium binding assay, primary cerebellar neuron cultures
Format in all cases: cell-based, rat
[1] = tested on: IGF-II receptor
Method: (§1) Fresh frozen tissue (˜100 mg) was homogenized in 5 volumes of NP-40 lysis buffer (50 mM Tris-HCl, pH 7.5, 1% NP-40, 150 mM NaCl, 1 mM EDTA, 2 mM EGTA) containing protease inhibitors (1 mM PMSF, 0.1 mM TPCK, 1 μg/ml aprotinin, 1 μg/ml pepstatin A, 0.5 μg/ml leupeptin, 1 mM NaF, 1 mM Na4P2O7). Protein concentrations were determined using the bicinchoninic acid (BCA) assay (Pierce, Rockford, Ill.). Exploratory studies determined the amounts of protein and concentrations of radiolabeled ligand required to achieve 20% specific binding. Insulin receptor binding assays were performed using 100 μg protein. IGF-I binding assays required 25 μg protein per sample, and IGF-II receptor binding assays were optimized using 10 μg protein. Competitive equilibrium binding assays were used to assess growth factor binding in relation to ethanol exposure. For total binding, duplicate individual protein samples were incubated in 100 μl reactions containing binding buffer (100 mM HEPES, pH 8.0, 118 mM NaCl, 1.2 mM MgSO4, 8.8 mM dextrose, 5 mM KCl, 1% bovine serum albumin) and 100 nCi/ml of [^125I] (2000 Ci/mmol; […]) insulin, IGF-I, or IGF-II. To measure non-specific binding, replicate samples were identically prepared but with the addition of 0.1 μM unlabeled (cold) ligand.
(§2) All reactions were performed in 1.5 ml Eppendorff tubes, and the incubations were performed at 4° C. for 16 hours with gentle platform agitation. Bound radiolabeled tracer was then precipitated by adding 500 μl of 0.15% bovine gamma globulin (prepared in 100 mM Tris-HCl, pH 8.0) followed by 400 μl 37.5% polyethylene glycol 8000 (PEG-8000; prepared in 100 mM Tris-HCl, pH 8.0) to each tube. The samples were thoroughly mixed by vortexing, and then incubated on ice for at least 2 hours. The precipitates were collected by centrifuging the samples at 15,000×g for 5 minutes at room temperature. The supernatant fraction, which contained unbound (free) ligand, was transferred in its entirety to a Gamma counting tube (Sarstedt, Newton, N.C.). The Eppendorff tube tip containing the pellet was cut and released directly into a separate Gamma counting tube. The samples were counted for 1 minute in an LKB CompuGamma CS Gamma counter. Specific binding was calculated by subtracting fmol of non-specific binding, i.e., amount bound in the presence of cold ligand, from the total fmol bound (absence of unlabeled competitive ligand). The results were analyzed and plotted using the GraphPad Prism 4 software (GraphPad Software, Inc., San Diego, Calif.).
(§3) In vitro experiments were used to examine the effects of ethanol on receptor binding and choline acetyltransferase (ChAT) and acetylcholinesterase (AChE) expression in cerebellar neurons. Primary neuronal cultures were generated with postnatal day 8 rat pup cerebellar tissue (Nikolic et al. Genes Dev. 10:816 (1996)). The cultures were maintained with Dulbecco's modified Eagle's medium (DMEM) supplemented with 5% fetal calf serum, 4 mM glutamine, 100 μM non-essential amino acid mixture (Gibco-BRL, Grand Island, N.Y.), 25 mM KCl, and 9 g/L glucose. […] Alcohol Clin. Exp. Res. 24:716 (2000); Banerjee et al. Alcohol Clin. Exp. Res. 22:2093 (1998)). Control cultures were identically treated but with water added to the reservoir tray. The chambers were flushed with gas containing 75% nitrogen, 20% oxygen, and 5% carbon dioxide. […] Alternatively, the cells were serum-starved for 12 hours and then stimulated with 10 nM insulin, […], 25 nM IGF-II, or vehicle for 16 hours, and RNA was harvested to measure ChAT and AChE expression.

[2] = tested on: insulin receptor
Method: as §1, §2, §3

[3] = tested on: IGF-I receptor
Method: as §1
All reactions were performed in 1.5 ml Eppendorff tubes, and the incubations were performed at 4° C. for 16 hours with gentle platform agitation. Bound radiolabeled tracer was then precipitated by adding 500 μl of 0.15% bovine gamma globulin (prepared in 100 mM Tris-HCl, pH 8.0) followed by 400 μl 37.5% polyethylene glycol 8000 (PEG-8000; prepared in 100 mM Tris-HCl, pH 8.0) to each tube. […] The samples were counted for 1 minute in an LKB CompuGamma CS Gamma counter. Specific binding was calculated by subtracting fmol of non-specific binding, i.e., amount bound in the presence of cold ligand, from the total fmol bound (absence of unlabeled competitive ligand). The results were analyzed and plotted using the GraphPad Prism 4 software (GraphPad Software, Inc., San Diego, Calif.). […]

[4] = 10 mM for 3 hours, control and ethanol-exposed cultures, relative to vehicle-treated cells
[5] = 50 mM ethanol for 96 hours vs control cultures
[6] = 10 mM for 3 hours, control cerebellar neurons

## Methyl-β-cyclodextrin [MβCD]
[1]; [4]
  IGF-II receptor binding: significantly inhibited
[2]; [4]
  insulin receptor binding: significantly inhibited
[3]; [4]
  IGF-I receptor binding: significantly inhibited

## CCO [ethanol]
[1]; [5]
  IGF-II receptor binding: significantly reduced
[2]; [5]
  insulin receptor binding: significantly reduced
[3]; [5]
  IGF-I receptor binding: significantly reduced

## CC(C)CCC[C@@H](C)[C@H]1CC[C@H]2[C@@H]3CC=C4C[C@@H](O)CC[C@]4(C)[C@H]3CC[C@]12C [cholesterol]
[1]; [6]
  IGF-II receptor binding: significantly impaired
[2]; 10 mM for 3 hours, control cells
  insulin receptor binding: no significant effect
[2]; 10 mM for 3 hours, ethanol-treated cells
  insulin-receptor binding: enhanced
[3]; [6]
  IGF-I receptor binding: significantly impaired
